Reference: US6809091B1, “Substances capable of inducing apoptosis” (Takara Bio Inc., priority 1998, dated 2004)

Assays:
human IL-10 = experiment: cytokine production in DSEK cells, ELISA; format: cell-based; conditions: DSEK cell incubation, supernatant every 24 hours
Method: (§1) Now, in the DSEK cell incubation, 150 μl/well of the supernatant liquid of the medium were recovered every 24 hours and influence of 4-hydroxy-2-cyclopenten-1-one or 4,5-dihydroxy-2-pentenal on the production of cytokines (human TGF-β, human FGF-β, human IL-1α and human IL-10) was measured using an ELISA-kit specific to each of the cytokine (the kit manufactured by INTERGEN or human FGF-β and human IL-10; and the kit manufactured by Promega for human IL-1α and human TGF-β).

HL-60 cells = experiment: measurement of apoptosis cells using FACScan; format: cell-based, human; conditions: HL-60, 24 hours and 48 hours
Method: (2) HL-60 cells which were incubated on an RPMI 1640 medium containing 10% of fetal bovine serum processed at 56° C. for 30 minutes were suspended in an RPMI 1640 medium to make 2.5×10^5 cells/5 ml. […]

human TGF-β = experiment: cytokine production in DSEK cells, ELISA; format: cell-based; conditions: DSEK cell incubation, supernatant every 24 hours
Method: as §1

| Compound | production of human IL-10 (human IL-10) | final concentration at which apoptosis cells were confirmed (HL-60 cells) [µM] | production of human TGF-β (human TGF-β) |
| --- | --- | --- | --- |
| O=CC=CC(O)CO (single isomer, unassigned) [4,5-dihydroxy-2-pentenal, trans-4,5-dihydroxy-2-pentenal] | activated |  |  |
| Nc1nc2c(ncn2C2C=CC(=O)C2)c(=O)[nH]1 (stereo not drawn) [4-(9-guaninyl)-2-cyclopenten-1-one] |  | ≥ 20 | inhibited |
